Assay results reported in patent publication US10449168B2 (The University of Toledo, priority 2015, dated 2019).
Entries after “also recorded” stand apart in the source; their conditions may differ.

How the values were obtained:
Format in all cases: biochemical
[1] = target: T1, Streptococcus pneumoniae aspartate semialdehyde dehydrogenase (spASADH) (Streptococcus pneumoniae, UniProt Q8DQ00); assay: spASADH kinetic assay: reverse direction, NADPH absorbance at 340 nm; Ki from Dixon plot assuming competitive inhibition against ASA; conditions: pH 8.6, r.t., 0.15 mM ASA, 1.5 mM NADP, 20 mM phosphate
T1 construct: homodimer from general knowledge
T1 sequence (Q8DQ00 1-358): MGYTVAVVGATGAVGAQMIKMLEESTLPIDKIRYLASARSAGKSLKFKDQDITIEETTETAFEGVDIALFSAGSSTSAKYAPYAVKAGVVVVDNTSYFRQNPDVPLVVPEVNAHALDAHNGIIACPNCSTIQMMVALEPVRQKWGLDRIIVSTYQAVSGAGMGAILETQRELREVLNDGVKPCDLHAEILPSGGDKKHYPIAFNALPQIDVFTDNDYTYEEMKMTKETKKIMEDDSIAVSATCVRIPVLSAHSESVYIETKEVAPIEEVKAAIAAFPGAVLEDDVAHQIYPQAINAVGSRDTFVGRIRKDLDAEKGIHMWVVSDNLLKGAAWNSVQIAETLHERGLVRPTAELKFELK

[2] = target: T2, Vibrio cholerae aspartate semialdehyde dehydrogenase (vcASADH) (Vibrio cholerae serotype O1, UniProt P23247); assay: biochemical; conditions: for inhibition / binding affinity for vcASADH (in words): relative to parent or neighbouring derivative
T2 construct: made in house
T2 sequence (P23247 whole entry): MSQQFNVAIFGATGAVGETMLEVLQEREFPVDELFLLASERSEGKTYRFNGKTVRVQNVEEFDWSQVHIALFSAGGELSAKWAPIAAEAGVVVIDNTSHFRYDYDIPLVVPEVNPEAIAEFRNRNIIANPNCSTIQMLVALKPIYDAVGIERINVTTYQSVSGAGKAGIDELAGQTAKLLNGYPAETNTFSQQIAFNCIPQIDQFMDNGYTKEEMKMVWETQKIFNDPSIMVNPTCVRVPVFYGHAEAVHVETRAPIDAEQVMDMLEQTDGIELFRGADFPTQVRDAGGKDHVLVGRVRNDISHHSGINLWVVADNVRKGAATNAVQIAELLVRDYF

[3] = target: Streptococcus pneumoniae aspartate semialdehyde dehydrogenase (spASADH) (Streptococcus pneumoniae, UniProt Q8DQ00); assay: biochemical; conditions: for inhibition / binding affinity for spASADH (in words): relative to parent or neighbouring derivative
[4] = target: Vibrio cholerae aspartate semialdehyde dehydrogenase (vcASADH); assay: vcASADH kinetic assay: reverse direction, NADPH absorbance at 340 nm; Ki from Dixon plot assuming competitive inhibition against ASA; conditions: pH 8.6, r.t., 0.3 mM ASA, 1.5 mM NADP, 20 mM phosphate
[5] = competitive vs ASA, 0.15 mM ASA, pH 8.6, read-out: Ki for spASADH

In the case of `O=C(O)CNCc1ccc(C(=O)O)c(C(=O)O)c1` [Compound 3, N-carboxymethyl-3,4-dicarboxybenzylamine], the Ki ([1]; FIG. 4, Table 1) is reported as 246 ± 20 µM, the Ki [2] is reported as 500 µM and the “inhibition / binding affinity for vcASADH (in words)” value [2] is reported as “high millimolar inhibitor”. For the same compound, the “inhibition / binding affinity for spASADH (in words)” value [3] was “two-fold stronger inhibitor; also recorded: high millimolar inhibitor”.

`O=C(O)CCNCc1ccc(C(=O)O)c(C(=O)O)c1` [Compound 4, N-carboxyethyl-3,4-dicarboxybenzylamine] was tested, and the “inhibition / binding affinity for vcASADH (in words)” value [2] was “did not show appreciable inhibition”, the Ki [3, 5] was 2400 µM and the “inhibition / binding affinity for spASADH (in words)” value [3] was “substantial affinity loss”.

`C[C@H](NCc1ccc(C(=O)O)c(C(=O)O)c1)C(=O)O` [Compound 5, N-((2-methyl)carboxymethyl)-3,4-dicarboxybenzylamine] was tested, and the Ki ([1]; FIG. 4, Table 1) was 296 ± 26 µM, the Ki ([4]; FIG. 4, Table 1) was 609 ± 23 µM and the “inhibition / binding affinity for vcASADH (in words)” value [2] was “no appreciable effect on the binding affinity”. For the same compound, the “inhibition / binding affinity for spASADH (in words)” value [3] was “no appreciable effect on the binding affinity; also recorded: did not lead to enhanced affinity”.

`O=C(O)c1ccc(CN[C@@H](CO)C(=O)O)cc1C(=O)O` [Compound 6, N-((2-hydroxymethyl)carboxymethyl)-3,4-dicarboxybenzylamine] was tested, and the Ki ([1]; FIG. 4, Table 1) was 324 ± 24 µM, the Ki ([4]; FIG. 4, Table 1) was 654 ± 22 µM and the “inhibition / binding affinity for vcASADH (in words)” value [2] was “no appreciable effect on the binding affinity”. For the same compound, the “inhibition / binding affinity for spASADH (in words)” value [3] was “no appreciable effect on the binding affinity; also recorded: did not lead to enhanced affinity”.

With `CN(CC(=O)O)Cc1cccc(C(=O)O)c1C(=O)O` [Compound 9, N-methyl, N-carboxymethyl-2,3-dicarboxybenzylamine] the “inhibition / binding affinity for vcASADH (in words)” value [2] was “no inhibition” and the Ki [3, 5] was 1800 µM.

Compound `CN(CC(=O)O)Cc1ccc(C(=O)O)c(C(=O)O)c1` [Compound 10, N-methyl, N-carboxymethyl-3,4-dicarboxybenzylamine] has a Ki ([1]; FIG. 4, Table 1) of 296 ± 36 µM and a Ki ([4]; FIG. 4, Table 1) of 675 ± 54 µM.

For `C=CCN(CC(=O)O)Cc1ccc(C(=O)O)c(C(=O)O)c1` [Compound 11, N-allyl, N-carboxymethyl-3,4-dicarboxybenzylamine], the Ki ([1]; FIG. 4, Table 1) was 303 ± 22 µM and the Ki ([4]; FIG. 4, Table 1) was 663 ± 36 µM.

With `O=C(O)CN(Cc1ccccc1)Cc1ccc(C(=O)O)c(C(=O)O)c1` [Compound 13, N-benzyl, N-carboxymethyl-3,4-dicarboxybenzylamine] the Ki ([1]; FIG. 4, Table 1) was 297 ± 14 µM and the Ki ([4]; FIG. 4, Table 1) was 696 ± 33 µM.

With `O=C(O)CN(Cc1ccc(C(=O)O)c(C(=O)O)c1)Cc1cccc2ccccc12` [Compound 14] the “inhibition / binding affinity for spASADH (in words)” value [3] was “slightly worse inhibition”.

`O=C(O)CN(Cc1ccc(C(=O)O)c(C(=O)O)c1)c1ccc2ccccc2c1` [Compound 15, N-(2-naphthyl)-N-carboxymethyl-3,4-dicarboxybenzylamine] was tested, and the Ki ([1]; FIG. 4, Table 1) was 329 ± 22 µM, the Ki ([4]; FIG. 4, Table 1) was 724 ± 47 µM and the “inhibition / binding affinity for spASADH (in words)” value [3] was “slightly worse inhibition”.

`O=C(O)CN(CCN1CCOCC1)Cc1ccc(C(=O)O)c(C(=O)O)c1` [Compound 16, N-(ethylmorpholino)-N-carboxymethyl-3,4-dicarboxybenzylamine] was tested, and the “inhibition / binding affinity for spASADH (in words)” value [3] was “only a slight improvement”.

`O=C(O)CN(Cc1ccc(C(=O)O)c(C(=O)O)c1)c1ccc(-c2ccccc2)cc1` [Compound 17, N-(4-biphenyl)-N-carboxymethyl-3,4-dicarboxybenzylamine] was tested, and the Ki ([4]; FIG. 4, Table 1) was 634 ± 29 µM, the “improved inhibition of spASADH relative to the parent benzyl derivative” value ([3]; relative to parent benzyl derivative) was 25 fold and the “inhibition / binding affinity for spASADH (in words)” value [3] was “improved binding affinity”.

In the case of `O=C(O)CN(Cc1ccc(C(=O)O)c(C(=O)O)c1)Cc1ccccc1Br` [Compound 18, N-(2-bromobenzyl)-N-carboxymethyl-3,4-dicarboxybenzylamine], the Ki ([1]; FIG. 5, Table 2) is reported as 529 ± 38 µM, the Ki ([4]; FIG. 5, Table 2) is reported as 737 ± 49 µM and the “inhibition / binding affinity for spASADH (in words)” value [3] is reported as “did not yield any improvement in affinity”.

`O=C(O)CN(Cc1cccc(Br)c1)Cc1ccc(C(=O)O)c(C(=O)O)c1` [Compound 19, N-(3-bromobenzyl)-N-carboxymethyl-3,4-dicarboxybenzylamine] was tested, and the Ki ([1]; FIG. 5, Table 2) was 442 ± 29 µM, the Ki ([4]; FIG. 5, Table 2) was 665 ± 37 µM and the “inhibition / binding affinity for spASADH (in words)” value [3] was “did not yield any improvement in affinity”.

In the case of `Cc1ccccc1CN(CC(=O)O)Cc1ccc(C(=O)O)c(C(=O)O)c1` [Compound 21, N-(2-methylbenzyl)-N-carboxymethyl-3,4-dicarboxybenzylamine], the Ki ([1]; FIG. 5, Table 2) is reported as 524 ± 27 µM, the Ki ([4]; FIG. 5, Table 2) is reported as 721 ± 46 µM and the “inhibition / binding affinity for spASADH (in words)” value [3] is reported as “did not yield any improvement in affinity”.

With `Cc1cccc(CN(CC(=O)O)Cc2ccc(C(=O)O)c(C(=O)O)c2)c1` [Compound 22, N-(3-methylbenzyl)-N-carboxymethyl-3,4-dicarboxybenzylamine] the Ki ([1]; FIG. 5, Table 2) was 430 ± 22 µM, the Ki ([4]; FIG. 5, Table 2) was 690 ± 41 µM and the “inhibition / binding affinity for spASADH (in words)” value [3] was “did not yield any improvement in affinity”.

For `Cc1ccc(CN(CC(=O)O)Cc2ccc(C(=O)O)c(C(=O)O)c2)cc1` [Compound 23, N-(4-methylbenzyl)-N-carboxymethyl-3,4-dicarboxybenzylamine], the Ki ([1]; FIG. 5, Table 2) was 63 ± 7 µM, the Ki ([4]; FIG. 5, Table 2) was 608 ± 42 µM and the “inhibition / binding affinity for vcASADH (in words)” value [2] was “did not show any improved affinity”.

With `O=C(O)CN(Cc1ccc(C(F)(F)F)cc1)Cc1ccc(C(=O)O)c(C(=O)O)c1` [Compound 26, N-(4-trifluoromethylbenzyl)-N-carboxymethyl-3,4-dicarboxybenzylamine] the Ki ([4]; FIG. 5, Table 2) was 628 ± 48 µM and the “inhibition / binding affinity for spASADH (in words)” value [3] was “two-fold additional improvement in binding affinity”.

For `O=C(O)CN(Cc1ccc(OC(F)(F)F)cc1)Cc1ccc(C(=O)O)c(C(=O)O)c1` [Compound 29, N-(4-trifluoromethoxybenzyl)-N-carboxymethyl-3,4-dicarboxybenzylamine], the Ki ([1]; FIG. 5, Table 2) was 36 ± 6 µM, the Ki ([4]; FIG. 5, Table 2) was 663 ± 39 µM and the “inhibition / binding affinity for spASADH (in words)” value [3] was “two-fold additional improvement in binding affinity”.

`O=C(O)CN(Cc1ccc(OC(F)F)cc1)Cc1ccc(C(=O)O)c(C(=O)O)c1` [Compound 30, N-(4-difluoromethoxybenzyl)-N-carboxymethyl-3,4-dicarboxybenzylamine] was tested, and the Ki ([1]; FIG. 5, Table 2) was 54 ± 5 µM, the Ki ([4]; FIG. 5, Table 2) was 698 ± 44 µM and the “inhibition / binding affinity for spASADH (in words)” value [3] was “reversed this improvement”.

In the case of `O=C(O)CN(Cc1ccc(C(=O)O)cc1)Cc1ccc(C(=O)O)c(C(=O)O)c1` [Compound 31, N-(4-carboxybenzyl)-N-carboxymethyl-3,4-dicarboxybenzylamine], the Ki ([1]; FIG. 5, Table 2) is reported as 72 ± 7 µM, the Ki ([4]; FIG. 5, Table 2) is reported as 635 ± 55 µM and the “inhibition / binding affinity for spASADH (in words)” value [3] is reported as “comparable affinity to that observed for the p-methylbenzyl derivative (23)”.

`NC(=O)c1ccc(CN(CC(=O)O)Cc2ccc(C(=O)O)c(C(=O)O)c2)cc1` [Compound 32, N-(4-carboxamidebenzyl)-N-carboxymethyl-3,4-dicarboxybenzylamine] showed a Ki ([1]; FIG. 5, Table 2) of 229 ± 32 µM, a Ki ([4]; FIG. 5, Table 2) of 649 ± 25 µM and a loss of affinity ([3]; carboxamide vs p-carboxyl derivative (31)) of 3 fold.

For `CC(C)(C)c1ccc(CN(CC(=O)O)Cc2ccc(C(=O)O)c(C(=O)O)c2)cc1` [Compound 33, N-(4-t-butylbenzyl)-N-carboxymethyl-3,4-dicarboxybenzylamine], the Ki ([4]; FIG. 5, Table 2) was 648 ± 32 µM, the “selectivity for spASADH relative to vcASADH” value ([3]; Gram-positive spASADH over Gram-negative vcASADH) was “over 40 fold” and the Ki [3, 5] was 16 µM. The “inhibition / binding affinity for spASADH (in words)” value [3] was “additional two-fold improvement”.

For `O=C(O)CN(Cc1ccc(C(F)(C(F)(F)F)C(F)(F)F)cc1)Cc1ccc(C(=O)O)c(C(=O)O)c1` [Compound 34, N-(4-(2-perfluoropropyl))-N-carboxymethyl-3,4-dicarboxybenzylamine], the Ki ([4]; FIG. 5, Table 2) was 639 ± 37 µM, the Ki [3] was 9 µM and the “inhibition / binding affinity for spASADH (in words)” value [3] was “low micromolar K value”.

`O=C(O)CCN(Cc1ccc(Br)cc1)Cc1ccc(C(=O)O)c(C(=O)O)c1` [Compound 35, N-(4-bromobenzyl)-N-carboxyethyl-3,4-dicarboxybenzylamine] was tested, and the Ki ([1]; FIG. 5, Table 2) was 3600 ± 230 µM and the “inhibition / binding affinity for spASADH (in words)” value [3] was “substantial affinity loss”.

In the case of `O=C(O)CN(Cc1ccc(C(F)(F)F)cc1)Cc1ccc(C(=O)O)c(C(=O)O)c1` [Compound 36, N-(4-trifluoromethylbenzyl)-N-carboxymethyl-3,4-dicarboxybenzylamine], the Ki ([1]; FIG. 5, Table 2) is reported as 3800 ± 220 µM and the “inhibition / binding affinity for spASADH (in words)” value [3] is reported as “substantial affinity loss”.

Compound `CC(=O)N(CC(=O)O)Cc1ccc(C(=O)O)c(C(=O)O)c1` [Compound 37, N-acetal-N-carboxymethyl-3,4-dicarboxybenzylamine] has a Ki ([1]; FIG. 4, Table 1) of 276 ± 16 µM and a Ki ([4]; FIG. 4, Table 1) of 655 ± 51 µM.

`O=C(O)CN(Cc1ccc(C=Cc2ccccc2)cc1)Cc1ccc(C(=O)O)c(C(=O)O)c1` [Compound 38, N-((4-(2-benzyl)vinyl)benzyl)-N-carboxymethyl-3,4-dicarboxybenzylamine] was tested, and the Ki ([4]; FIG. 5, Table 2) was 1100 ± 200 µM.

“N-(1-naphthyl)-N-carboxymethyl-3,4-dicarboxybenzylamine [Compound 14]” gave a Ki ([1]; FIG. 4, Table 1) of 396 ± 42 µM and a Ki ([4]; FIG. 4, Table 1) of 749 ± 54 µM.

Compound “N-acetonitrile, N-carboxymethyl-3,4-dicarboxybenzylamine [Compound 12]” has a Ki ([1]; FIG. 4, Table 1) of 220 ± 14 µM and a Ki ([4]; FIG. 4, Table 1) of 498 ± 27 µM.
